Laboratory results from patent publication US20140073643A1, “TREATMENT OF JAK2-MEDIATED CONDITIONS” (YM BIOSCIENCES AUSTRALIA PTY LTD, priority 2010, published 2014).
Marks after values point to notes of the source that are not given here.

Legend:
[1] = tested on: patients with high- or intermediate-risk primary myelofibrosis (PMF) and post-PV or post-essential thrombocythemia (ET) myelofibrosis; test: Phase I/II clinical trial of CYT387: spleen response; format: in vivo, human
Text: By “spleen response” is meant a reduction in the size of the patient's spleen as assessed by either palpation of a previously palpable spleen during physical exam or by diagnostic imaging. The IWG consensus criteria specifies that there be either a minimum 50% reduction in palpable splenomegaly (spleen enlargement) of a spleen that is at least 10 cm at baseline (prior to treatment) or of a spleen that is palpable at more than 5 cm at baseline becomes not palpable. However, smaller reductions are also considered to be within the term “spleen response”.
(§1) A clinical trial was designed to assess the safety, tolerability, and pharmacokinetic behavior of CYT387 in a Phase I dose-escalation study in patients with high- or intermediate-risk primary myelofibrosis (PMF) and post-PV or post-essential thrombocythemia (ET) myelofibrosis. The secondary objective was evaluation of CYT387 's benefit to myelofibrosis patients. CYT387 was administered orally (in a capsule without excipients) once daily in 28-day cycles. For patients achieving less than a complete remission after 3 cycles of treatment, escalation was permitted to the highest tolerated dose in the absence of disease progression or unacceptable toxicity. Once dose-limiting toxicity (DLT) was identified, a dose-confirmation cohort initiated treatment at the maximum tolerated dose (MTD) and/or a lower clinically effective dose.
(§2) Results were obtained for 36 subjects enrolled in the 120 patient Phase I/II trial for which recruitment is ongoing. Of these, 18 patients were from the dose escalation phase, and 18 patients were from the subsequent dose confirmation phase. Twenty subjects (56%) were red cell transfusion-dependent at study entry. Prior treatment included other JAK inhibitors in ten patients (nine and one subjects with INCB018424 and TG101348, respectively) and pomalidomide in nine patients. The median treatment duration at publication was 15 weeks (range 4-38).
Spleen Size Reduction: Twenty nine (97%) of the 30 evaluable subjects who had splenomegaly at baseline (median 20 cm; range 10-32 cm) had some degree of spleen size reduction (median 9 cm; range 2-18 cm). Eleven (37%) patients have achieved a minimum 50% decrease in palpable spleen size, thus qualifying them for a CI per IWG-MRT criteria, including three out of eight subjects (38%) who were previously treated with INCB018424.

[2] = tested on: patients with high- or intermediate-risk primary myelofibrosis (PMF) and post-PV or post-essential thrombocythemia (ET) myelofibrosis; test: Phase I/II clinical trial of CYT387: constitutional symptoms; format: in vivo, human; conditions: at last follow up
Protocol: as §1, §2
Constitutional symptoms: The proportion of patients with the following symptoms at baseline was as follows: fatigue (97%), pruritus (22%), night sweats (38%), cough (13%), bone pain (28%), and fever (16%). At last follow up, improvement (complete resolution; CR) in these symptoms was reported by 68% (16% CR), 86% (57% CR), 83% (75% CR), 75% (50% CR), 78% (44% CR), and 100% (100% CR), respectively.

[3] = tested on: patients with high- or intermediate-risk primary myelofibrosis (PMF) and post-PV or post-essential thrombocythemia (ET) myelofibrosis; test: Phase I/II clinical trial of CYT387: anemia response / hemoglobin; format: in vivo, human
Text: By “anemia response” is meant an increase in the patient's hemoglobin level or a patient who was transfusion dependent becoming transfusion independent. Desirably, a minimum increase in hemoglobin of 2.0 g/dL lasting a minimum of 8 weeks is achieved, which is the level of improvement specified in the International Working Group (IWG) consensus criteria. However, smaller, but still medically significant, increases in hemoglobin are also considered to be within the term “anemia response”.
as §1, with “CYT387 was administered orally (in a capsule without excipients) once daily in 28-day cycles.” left out
as §2
Anemia Response: The total anemia response rate was 63%. Of 22 subjects who were evaluable for anemia response (baseline Hgb<10 g/dL or red cell transfusion-dependent), nine subjects (41%) had achieved “Clinical Improvement (CI)” as per the International Working Group for Myeloproliferative Neoplasms Research and Treatment (IWG-MRT) criteria, including two of four subjects who were previously treated with INCB018424. An additional five subjects experienced a >50% reduction in transfusion requirement.
There is also a line for “anemia evaluable” patients which are patients who are considered anemic at baseline by IWG criteria. That is they have a baseline hgb of <10 g/dL or are transfusion dependent at baseline.

[4] = tested on: patients with high- or intermediate-risk primary myelofibrosis (PMF) and post-PV or post-essential thrombocythemia (ET) myelofibrosis; test: Phase I/II clinical trial of CYT387: toxicity; format: in vivo
Protocol: as §1, §2
To date, 36 subjects were evaluable for toxicity. At the highest dose level (400 mg/day), two of six subjects experienced dose limiting toxicity (DLT) (one each with asymptomatic grade three hyperlipasemia and grade three headache that were reversible upon holding drug); consequently, the maximum tolerated dose (MTD) was declared at 300 mg/day. In the dose-confirmation phase, subjects were started at one of two dose levels that were deemed clinically effective: 150 mg/day (n=15) and 300 mg/day (n=3). Thirty-five subjects were on active therapy at publication of the abstract: 100 mg/day (n=2), 150 mg/day (n=20), 300 mg/day (n=10), and 400 mg/day (n=3).

[5] = administered once a day; cited from earlier work
[6] = 30 evaluable subjects with splenomegaly at baseline
[7] = Previous Treatment with IMids (Pomalidomide, Thalidomide, Revlimid)
[8] = Previous Treatment with INCB018424
[9] = Previous Treatment with TG-101348
[10] = Previous Treatment with Unspecified JAK2
[11] = Previous Treatment with any JAK2
[12] = interim response by diagnosis: PET
[13] = interim response by diagnosis: PMF
[14] = interim response by diagnosis: PPV

SMILES: N#CCNC(=O)c1ccc(-c2ccnc(Nc3ccc(N4CCOCC4)cc3)n2)cc1 [CYT387, N-(cyanomethyl)-4-[2-[[4-(4-morpholinyl)phenyl]amino]-4-pyrimidinyl]-benzamide]
- subjects with some degree of spleen size reduction ([1]; 29 of 30 evaluable subjects with splenomegaly at baseline (median 20 cm)): 97%
- spleen size reduction, median [1, 6]: 9 cm
- spleen size reduction, range [1, 6]: 2-18 cm
- Responders, Spleen [1, 7]: Spleen: 6/11 = 54.5%
- Responders, Spleen [1, 8]: Spleen: 3/10 = 30%
- Responders, Spleen [1, 9]: Spleen: 1/4 = 25%
- Responders, Spleen [1, 10]: Spleen: 1/3 = 33.3%
- Responders, Spleen [1, 11]: Spleen: 5/17 = 29.4%
- patients with minimum 50% decrease in palpable spleen size (CI per IWG-MRT) ([1]; eleven of 30 evaluable): 37%
- Spleen Response/Evaluable [1, 12]: 7/19 (36.8%)
- Spleen Response/Evaluable [1, 13]: 22/82 (26.8%)
- Spleen Response/Evaluable [1, 14]: 11/33 (33.3%)
- patients with minimum 50% decrease in palpable spleen size (CI per IWG-MRT), previously treated with INCB018424 ([1]; three out of eight subjects previously treated with INCB018424): 38%
- complete resolution (CR) of bone pain [2]: 44%
- complete resolution (CR) of cough [2]: 50%
- complete resolution (CR) of fatigue [2]: 16%
- complete resolution (CR) of fever [2]: 100%
- complete resolution (CR) of night sweats [2]: 75%
- complete resolution (CR) of pruritus [2]: 57%
- improvement in bone pain [2]: 78%
- improvement in cough [2]: 75%
- improvement in fever [2]: 100%
- improvement in night sweats [2]: 83%
- improvement in pruritus [2]: 86%
- improvement in fatigue ([2]; patients with symptom at baseline): 68%
- effect on hemoglobin in transfusion dependent patients who respond (Tx responders) ([3]; FIG. 2, no longer receiving RBC transfusions): modest initial increase in hemoglobin that is sustained
- Anemia response: % responders ([3]; Initial Dose 150 BID): 33%*
- Anemia response: Responders (number) ([3]; Initial Dose 150 BID, 21 evaluable pts): 7
- Anemia response: % responders ([3]; Initial Dose 150 QD): 50%
- Anemia response: Responders (number) ([3]; Initial Dose 150 QD, 32 evaluable pts): 16
- Anemia response: % responders ([3]; Initial Dose 300 QD): 54%
- Anemia response: Responders (number) ([3]; Initial Dose 300 QD, 39 evaluable pts): 21
- Responders, Anemia [3, 7]: Anemia: 9/14 = 64.3%
- Responders, Anemia [3, 8]: Anemia: 4/7 = 57.1%
- Responders, Anemia [3, 9]: Anemia: 3/4 = 75%
- Responders, Anemia [3, 10]: Anemia: 2/3 = 66.7%
- Responders, Anemia [3, 11]: Anemia: 9/14 = 64.3%
- effect on hemoglobin levels ([3]; first 60 patients, FIG. 1 and 2): clear and sustained improvement in hemoglobin levels
- Anemia Response/Evaluable [3, 12]: 10/18 (55.6%)
- Anemia Response/Evaluable [3, 13]: 30/66 (45.5%)
- Anemia Response/Evaluable [3, 14]: 6/14 (42.9%)
- subjects achieving Clinical Improvement (CI) in anemia per IWG-MRT criteria ([3]; nine of 22 evaluable subjects (baseline Hgb<10 g/dL or red cell transfusion-dependent)): 41%
- additional subjects with >50% reduction in transfusion requirement ([3]; of 22 evaluable subjects): five
- total anemia response rate ([3]; oral once daily, 28-day cycles, 22 subjects evaluable for anemia response): 63%
- subjects achieving anemia CI per IWG-MRT among those previously treated with INCB018424 ([3]; previously treated with INCB018424): two of four
- Grade 3/4 thrombocytopenia ([4]; human, in vivo): 22%
- Treatment-emergent grade 3/4 neutropenia ([4]; human, in vivo): not observed
- grade 4 non-hematological toxicities ([4]; human, in vivo): No grade 4 non-hematological toxicities were observed
- subjects experiencing dose limiting toxicity (DLT) ([4]; human, in vivo): two of six
- subjects with first-dose effect (grade 1 lightheadedness and hypotension) ([4]; human, in vivo): 36%
- time to resolution of first-dose effect ([4]; human, in vivo): 3 to 4 h
- tolerability ([4]; human, in vivo): well tolerated
- treatment-emergent grade 3 anemia ([4]; human, in vivo): 3%
- maximum tolerated dose (MTD) ([4]; oral once daily): 300 mg/day

SMILES: Cc1cnc(Nc2ccc(OCCN3CCCC3)cc2)nc1Nc1cccc(S(=O)(=O)NC(C)(C)C)c1 [TG101348]
- maximum tolerated dose (MTD) [5]: 680 mg/day
